ChEMBL document CHEMBL1124038, “Dehydro keto methylene and keto methylene analogues of substance P. Synthesis and biological activity” (J Med Chem, 1988)
Numbered stars: 1 amine (or outer) side, 2 acyl side, 3 side chain; on linkers, the order of the positions; unused ones are H or OH. Square brackets hold non-standard residues; d marks the D form. Peptide text beside a SMILES is read from it. X1 = CC(C)C[C@H](CC(=O)CN[*:1])C(=O)[*:2]; pGlu = O=C1CC[C@@H](C(=O)O)N1

Species on record: Rattus norvegicus
Test: Inhibition of the degradation of [125IBH]-SP6-11 in rat hypothalamus preparations
Type: functional

| Structure (SMILES) | IC50 |
| --- | --- |
| COC(=O)CCC(=O)[C@H](Cc1ccccc1)NC(=O)[C@H](Cc1ccccc1)NC(=O)[C@H]1CCC(=O)N1 | > 200 µM |
| CCOC(=O)/C(=C\c1ccccc1)CC(=O)[C@@H](N)Cc1ccccc1 | > 200 µM |
| CSCC[C@H](NC(=O)[C@H](CC(C)C)NC(=O)CNC(=O)[C@@H](CC(=O)[C@H](Cc1ccccc1)NC(=O)[C@H]1CCC(=O)N1)Cc1ccccc1)C(N)=O | 30 µM |
| CSCC[C@H](NC(=O)[C@@H](CC(=O)CNC(=O)[C@H](Cc1ccccc1)NC(=O)[C@H](Cc1ccccc1)NC(=O)[C@@H]1CCC(=O)N1)CC(C)C)C(N)=O ([pGlu]FF[X1]M-NH2) | 50 µM |
| CCOC(=O)/C(=C\c1ccccc1)CC(=O)[C@H](Cc1ccccc1)NC(=O)c1ccccc1 | > 200 µM |
| COC(=O)CCC(=O)[C@@H](N)Cc1ccccc1 | > 200 µM |
| O=C1CC[C@H](C(=O)N[C@@H](Cc2ccccc2)C(=O)C/C(=C/c2ccccc2)C(=O)O)N1 | > 200 µM |
| CSCC[C@H](NC(=O)[C@H](CC(C)C)NC(=O)CNC(=O)/C(=C\c1ccccc1)CC(=O)[C@H](Cc1ccccc1)NC(=O)[C@H]1CCC(=O)N1)C(N)=O | 1.8 µM |
| CCOC(=O)/C(=C\c1ccccc1)CC(=O)[C@H](Cc1ccccc1)NC(=O)[C@H]1CCC(=O)N1 | > 200 µM |
